Test results taken from the supplement of paper PMC10307832.

Columns and labels:
Experiment in all cases: relative viability (nuclei count vs DMSO), 5 days (fraction); higher = more cells survive
[1] = compound: COc1cc(Nc2ncc3c(n2)-c2ccc(Cl)cc2C(c2c(F)cccc2OC)=NC3)ccc1C(=O)O [Alisertib] + CC1(C)CCC(c2ccc(Cl)cc2)=C(CN2CCN(c3ccc(C(=O)NS(=O)(=O)c4ccc(N[C@H](CCN5CCOCC5)CSc5ccccc5)c(S(=O)(=O)C(F)(F)F)c4)cc3)CC2)C1 [Navitoclax] (partner 0.5 µM)
Outline: (§1)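 Lung cancer cell lines were pin-tool dosed in 1536-well plates on the day after seeding, with either a lone drug or a fixed anchor-drug dose plus five library-drug doses (not always all listed) in √10 steps. Nuclei were counted on 4× images after 5 days. Relative viability is the ratio of treated-well to vehicle-well nuclei counts, with each value a median of duplicate plates.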

[2] = compound: COc1cc(Nc2ncc3c(n2)-c2ccc(Cl)cc2C(c2c(F)cccc2OC)=NC3)ccc1C(=O)O [Alisertib] + C[C@@H](Oc1cc(-c2cnn(C3CCNCC3)c2)cnc1N)c1c(Cl)ccc(F)c1Cl [Crizotinib] (partner 1 µM)
Outline: as §1

[3] = compound: COc1cc(Nc2ncc3c(n2)-c2ccc(Cl)cc2C(c2c(F)cccc2OC)=NC3)ccc1C(=O)O [Alisertib] + Cc1nc(Nc2ncc(C(=O)Nc3c(C)cccc3Cl)s2)cc(N2CCN(CCO)CC2)n1 [Dasatinib] (partner 0.075 µM)
Outline: as §1

[4] = compound: COc1cc(Nc2ncc3c(n2)-c2ccc(Cl)cc2C(c2c(F)cccc2OC)=NC3)ccc1C(=O)O [Alisertib] + O=C(CCCCCCC(=O)Nc1ccccc1)NO [Vorinostat] (partner 1 µM)
Outline: as §1

Cell Line	relative viability ([1]; first compound 0.005 µM)	relative viability ([1]; first compound 0.01581 µM)	relative viability ([1]; first compound 0.05 µM)	relative viability ([1]; first compound 0.1581 µM)	relative viability ([1]; first compound 0.5 µM)	relative viability ([2]; first compound 0.005 µM)	relative viability ([2]; first compound 0.01581 µM)	relative viability ([2]; first compound 0.05 µM)	relative viability ([2]; first compound 0.1581 µM)	relative viability ([2]; first compound 0.5 µM)	relative viability ([3]; first compound 0.005 µM)	relative viability ([3]; first compound 0.01581 µM)	relative viability ([3]; first compound 0.05 µM)	relative viability ([3]; first compound 0.1581 µM)	relative viability ([3]; first compound 0.5 µM)	relative viability ([4]; first compound 0.005 µM)	relative viability ([4]; first compound 0.01581 µM)	relative viability ([4]; first compound 0.05 µM)	relative viability ([4]; first compound 0.1581 µM)	relative viability ([4]; first compound 0.5 µM)
H3255	0.484	0.415	0.355	0.0997	0.0929	0.909	0.765	0.662	0.205	0.174	0.328	0.445	0.279	0.242	0.292	0.8	0.822	0.656	0.337	0.264
EPLC-272H	1.11	0.962	0.368	0.346	0.147	0.931	0.851	0.739	0.201	0.113	0.304	0.365	0.382	0.0703	0.0736	0.454	0.401	0.248	0.104	0.132
RERF-LC-KJ	1.06	0.838	0.415	0.178	0.284	0.831	0.662	0.692	0.206	0.196	0.73	0.672	0.366	0.187	0.17	0.626	0.507	0.391	0.252	0.213
NCI-H1793	0.428	0.339	0.247	0.17	0.148						0.397	0.242	0.186	0.11	0.116	0.465	0.41	0.267	0.191	0.221
EKVX	0.924	0.837	0.589	0.162	0.15	0.796	0.807	0.313	0.182	0.219	0.541	0.47	0.243	0.244	0.229	0.684	0.551	0.285	0.263	0.319
ChaGo-K-1	1.01	0.8	0.313	0.286	0.239	1.08	0.849	0.366	0.344	0.317	0.488	0.6	0.277	0.165	0.162	0.653	0.643	0.24	0.207	0.161
NCI-H23	0.677	0.562	0.334	0.175	0.143	0.427	0.367	0.202	0.179	0.187	0.67	0.661	0.301	0.173	0.198	0.456	0.24	0.132	0.153	0.149
EMC-BAC-2	1.08	0.978	0.362	0.296	0.18	0.683	0.382	0.25	0.225	0.148	0.315	0.221	0.185	0.161	0.128	0.28	0.257	0.202	0.186	0.151
LOU-NH91	0.79	0.731	0.551	0.326	0.271	0.76	0.705	0.494	0.463	0.424	0.526	0.624	0.477	0.351	0.296	0.834	0.821	0.602	0.422	0.371
LU99A	0.846	0.634	0.206	0.211	0.123	0.513	0.451	0.245	0.217	0.182	0.502	0.513	0.323	0.183	0.17	0.467	0.428	0.177	0.16	0.187
NCI-H1395	1.12	1.12	0.935	0.459	0.471						0.384	0.376	0.451	0.329	0.296	0.667	0.588	0.442	0.385	0.321
NCI-H460	1.13	0.815	0.471	0.0264	0.0172	0.847	0.731	0.0614	0.0166	0.0164	0.455	0.485	0.198	0.036	0.0218	0.683	0.527	0.0348	0.039	0.0281
201T	1.25	1.19	1.21	1.07	0.425	0.982	0.992	0.938	0.809	0.418	0.527	0.556	0.583	0.327	0.284	0.927	0.881	0.913	0.414	0.333
NCI-H1944	1.06	1.01	0.969	0.415	0.194	1.05	1.04	0.504	0.386	0.222	0.196	0.217	0.218	0.113	0.113	0.573	0.52	0.339	0.183	0.188
NCI-H2405	0.873	0.778	0.574	0.198	0.135	0.781	0.794	0.491	0.268	0.253	0.196	0.202	0.189	0.152	0.132	0.913	0.898	0.799	0.288	0.213
NCI-H1703	1.2	0.837	0.317	0.156	0.126	0.711	0.501	0.294	0.37	0.113										
NCI-H1755	0.928	0.99	0.682	0.356	0.181	0.853	0.73	0.415	0.366	0.294	0.382	0.467	0.356	0.221	0.0862	0.768	0.776	0.433	0.386	0.329
NCI-H2087	0.868	0.742	0.164	0.153	0.153	0.893	0.609	0.176	0.225	0.209	0.776	0.628	0.137	0.113	0.123	0.758	0.667	0.173	0.106	0.133
NCI-H2228	0.829	0.672	0.564	0.0729	0.0587	0.686	0.406	0.301	0.168	0.188	0.414	0.416	0.248	0.0768	0.1	0.544	0.671	0.373	0.0949	0.104

Cell Line	relative viability ([1]; first compound 0.005 µM)	relative viability ([1]; first compound 0.01581 µM)	relative viability ([1]; first compound 0.05 µM)	relative viability ([1]; first compound 0.1581 µM)	relative viability ([1]; first compound 0.5 µM)	relative viability ([2]; first compound 0.005 µM)	relative viability ([2]; first compound 0.01581 µM)	relative viability ([2]; first compound 0.05 µM)	relative viability ([2]; first compound 0.1581 µM)	relative viability ([2]; first compound 0.5 µM)	relative viability ([3]; first compound 0.005 µM)	relative viability ([3]; first compound 0.01581 µM)	relative viability ([3]; first compound 0.05 µM)	relative viability ([3]; first compound 0.1581 µM)	relative viability ([3]; first compound 0.5 µM)	relative viability ([4]; first compound 0.005 µM)	relative viability ([4]; first compound 0.01581 µM)	relative viability ([4]; first compound 0.05 µM)	relative viability ([4]; first compound 0.1581 µM)	relative viability ([4]; first compound 0.5 µM)
NCI-H838	1.12	1.1	0.667	0.306	0.169	0.821	0.727	0.281	0.218	0.186	0.289	0.298	0.263	0.239	0.189	0.597	0.461	0.294	0.185	0.197
NCI-H661						1.05	1.02	0.48	0.392	0.504	0.57	0.675	0.416	0.258	0.297	0.771	0.729	0.435	0.355	0.276
NCI-H520	1.19	0.66	0.386	0.272	0.251	0.589	0.38	0.286	0.296	0.243	0.218	0.199	0.148	0.177	0.159	0.588	0.455	0.325	0.276	0.208
EBC-1	0.298	0.278	0.131	0.17	0.167	0.177	0.189	0.174	0.139	0.155										
NCI-H727	0.389	0.477	0.183	0.166	0.152	0.691	0.675	0.361	0.315	0.267	0.425	0.357	0.397	0.243	0.242	1.19	0.986	0.939	0.471	0.561
NCI-H1299	1.03	1.01	0.801	0.395	0.204	0.965	0.727	0.671	0.348	0.252										
LK-2	0.859	0.722	0.356	0.181	0.225	0.226	0.232	0.224	0.233	0.288	0.353	0.267	0.212	0.192	0.153	0.229	0.326	0.167	0.176	0.186
NCI-H1993	1.12	1.04	0.463	0.499	0.542	0.564	0.744	0.6	0.573	0.527	0.538	0.644	0.474	0.386	0.433	0.63	0.436	0.395	0.372	0.339
NCI-H1648																	0.22	0.315	0.235	0.236
LCLC-103H						1.04	1.04	0.719	0.374	0.412	0.455	0.509	0.423	0.26	0.158	0.67	0.561	0.352	0.323	0.396
SW 900											0.494	0.435	0.404	0.171	0.172	0.351	0.369	0.476	0.221	0.223
IA-LM	0.654	0.59	0.313	0.164	0.0604	0.831	0.608	0.485	0.256	0.104						0.986	0.87	0.564	0.189	0.0645
NCI-H1563						0.741	0.911	0.788	0.809	0.601	0.441	0.544	0.442	0.414	0.387					
HCC-44	1.04	0.949	0.509	0.412	0.14	0.872	0.769	0.388	0.219	0.176						1.05	0.784	0.397	0.387	0.339
NCI-H358						0.632	0.358	0.193	0.188	0.186	0.168	0.176	0.114	0.0896	0.0837	0.551	0.449	0.105	0.1	0.0875
ABC-1						1.1	0.551	0.363	0.318	0.23	0.46	0.436	0.434	0.226	0.243	0.993	0.753	0.46	0.249	0.332
NCI-H522											0.812	0.91	0.67	0.323	0.434	0.823	0.897	0.822	0.521	0.549
NCI-H650						0.773	0.55	0.28	0.239	0.23	0.429	0.479	0.21	0.194	0.169	0.263	0.414	0.144	0.17	0.131
NCI-H1792	0.608	0.6	0.494	0.096	0.0626	0.939	0.91	0.543	0.201	0.0858	0.727	0.732	0.413	0.252	0.162					
